Results: paper PMC10997566, “Kinetic profiling of novel spirobenzo-oxazinepiperidinone derivatives as equilibrative nucleoside transporter 1 inhibitors” (Purinergic Signalling, 2023)

Assays:
hENT1 [1] = target: T1, hENT1 (Homo sapiens, UniProt Q99808); assay: [3H]NBTI competition association assay (Motulsky and Mahan); conditions: 10 °C; for RT (residence time): RT = 1/koff; for koff / kon: human erythrocyte membranes, competitor at IC50 concentration, mean ± SEM
T1 sequence (Q99808 1-456): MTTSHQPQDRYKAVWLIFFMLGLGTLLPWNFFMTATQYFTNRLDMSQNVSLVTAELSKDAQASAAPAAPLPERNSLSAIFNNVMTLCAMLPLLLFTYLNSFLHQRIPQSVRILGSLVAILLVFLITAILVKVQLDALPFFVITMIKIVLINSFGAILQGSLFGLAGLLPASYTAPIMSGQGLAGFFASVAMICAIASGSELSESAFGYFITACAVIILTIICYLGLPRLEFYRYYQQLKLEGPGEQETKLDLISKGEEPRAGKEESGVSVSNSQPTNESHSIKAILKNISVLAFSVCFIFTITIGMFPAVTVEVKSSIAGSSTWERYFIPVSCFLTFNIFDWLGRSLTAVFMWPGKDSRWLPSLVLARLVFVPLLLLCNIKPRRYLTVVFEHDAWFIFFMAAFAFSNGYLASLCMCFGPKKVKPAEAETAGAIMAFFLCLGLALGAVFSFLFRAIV

hENT1 [2] = target: T1, hENT1; assay: [3H]NBTI radioligand displacement assay; conditions: Ki relative to compound 1
hENT1 [3] = target: T1, hENT1; parameters: For our experiments, we used human erythrocytes as a source of hENT1; from tissue; host or cells: human erythrocytes (membrane preparation); method as in PMID 31830468; conditions: earlier study, same experimental protocol; cited from earlier work
hENT1 [4] = target: T1, hENT1; assay: Washout assay with [3H]NBTI binding after four wash cycles; parameters: For our experiments, we used human erythrocytes as a source of hENT1; from tissue; host or cells: human erythrocytes (membrane preparation); conditions: 10 °C; for inhibitor washed away (recovery of [3H]NBTI binding): 1 h pre-incubation at 10 × IC50, four wash and centrifugation cycles, erythrocyte membranes
Description: Centrifugation at 13,200 rpm (16,100 × g) at 4 °C for 5 min separated pellet and supernatant, with the latter containing the unbound ligand being removed. Pellets were resuspended in 1 mL of assay buffer, and samples were incubated for 10 min at 10 °C. In total, four centrifugation-washing cycles were performed. […] Rapid filtration through GF/C filters using a Brandel harvester (Brandel, Gaithersburg, MD) terminated the experiment. Filters were washed three times using ice-cold wash buffer and the samples were counted by scintillation spectrometry using a Tri-carb 2900 TR liquid scintillation counter (Perkin Elmer, Boston, MA).
A washout assay was used to validate the findings in the competition association assays (Fig. 2C). […] The unwashed condition was also similarly assessed, but no wash and centrifugation cycle occurred before the determination of radioligand binding. The results of both washed and unwashed samples were compared to the control condition without any competitor (100% washed and unwashed radioligand binding, respectively).

hENT1 [5] = target: T1, hENT1; assay: biochemical

CN1CCC(Nc2cc3c(cc2Cl)C(=O)NC2(CCN(CCNC(=O)c4c(Cl)cccc4Cl)CC2)O3)CC1 [Compound 17]
RT (residence time) (hENT1 [1]): 1.9 ± 0.1 min | koff (hENT1 [1]): 0.00892 ± 0.000517 s⁻¹ | kon (hENT1 [1]): 367000 ± 33000 M⁻¹ s⁻¹

CC(=O)N1CCC(Oc2cc3c(cc2Cl)C=CC2(CCN(CCNC(=O)c4c(Cl)cccc4Cl)CC2)O3)CC1 [Compound 28]
RT (residence time) (hENT1 [1]): 87 ± 8.7 min | koff (hENT1 [1]): 0.000183 ± 1.7e-05 s⁻¹ | kon (hENT1 [1]): 1.62e+06 ± 120000 M⁻¹ s⁻¹

CN1CCN(c2cc3c(cc2Cl)C(=O)NC2(CCN(CCNC(=O)c4c(Cl)cccc4Cl)CC2)O3)CC1 [Compound 13]
RT (residence time) (hENT1 [1]): 11 ± 0.5 min | koff (hENT1 [1]): 0.00148 ± 6.7e-05 s⁻¹ | kon (hENT1 [1]): 450000 ± 67000 M⁻¹ s⁻¹

CC(=O)N1CCC(Oc2cc3c(cc2Cl)C(O)CC2(CCN(CCNC(=O)c4c(Cl)cccc4Cl)CC2)O3)CC1 (centres unmarked) [Compound 27]
RT (residence time) (hENT1 [1]): 79 ± 20 min | koff (hENT1 [1]): 0.000217 ± 5e-05 s⁻¹ | kon (hENT1 [1]): 900000 ± 250000 M⁻¹ s⁻¹

CNCCCNc1cc2c(cc1Cl)C(=O)NC1(CCN(CCNC(=O)c3c(Cl)cccc3Cl)CC1)O2 [Compound 8]
RT (residence time) (hENT1 [1]): 3.4 ± 0.6 min | koff (hENT1 [1]): 0.00493 ± 0.000833 s⁻¹ | kon (hENT1 [1]): 183000 ± 67000 M⁻¹ s⁻¹

CN(CCCNc1cc2c(cc1Cl)C(=O)NC1(CCN(CCNC(=O)c3c(Cl)cccc3Cl)CC1)O2)C(=O)OC(C)(C)C [Compound 10]
RT (residence time) (hENT1 [1]): 26 ± 2.0 min | koff (hENT1 [1]): 0.000633 ± 5e-05 s⁻¹ | kon (hENT1 [1]): 550000 ± 50000 M⁻¹ s⁻¹

CC(C)(C)OC(=O)N1CCC(Nc2cc3c(cc2Cl)C(=O)NC2(CCN(CCNC(=O)c4c(Cl)cccc4Cl)CC2)O3)CC1 [Compound 19]
RT (residence time) (hENT1 [1]): 34 ± 9.7 min | koff (hENT1 [1]): 0.0005 ± 0.00015 s⁻¹ | kon (hENT1 [1]): 317000 ± 17000 M⁻¹ s⁻¹

O=C1NC2(CCN(CCNC(=O)c3c(Cl)cccc3Cl)CC2)Oc2cc(N3CCNCC3)c(Cl)cc21 [Compound 12]
RT (residence time) (hENT1 [1]): 2.9 ± 0.2 min | koff (hENT1 [1]): 0.00583 ± 0.000433 s⁻¹ | kon (hENT1 [1]): 633000 ± 67000 M⁻¹ s⁻¹

O=C1NC2(CCN(CCNC(=O)c3c(Cl)cccc3Cl)CC2)Oc2cc(NC3CCCC3)c(Cl)cc21 [Compound 6]
RT (residence time) (hENT1 [1]): 21 ± 1.4 min | koff (hENT1 [1]): 0.0008 ± 5e-05 s⁻¹ | kon (hENT1 [1]): 1.68e+06 ± 583000 M⁻¹ s⁻¹

CNc1cc2c(cc1Cl)C(=O)NC1(CCN(CCNC(=O)c3c(Cl)cccc3Cl)CC1)O2 [Compound 2]
increase in affinity compared to 1 (hENT1 [2]): approximately 30 fold | RT (residence time) (hENT1 [1]): 4.9 ± 1.1 min | koff (hENT1 [1]): 0.00338 ± 0.000783 s⁻¹ | kon (hENT1 [1]): 2.05e+06 ± 483000 M⁻¹ s⁻¹

COc1cc(C(=O)OCCCN2CCCN(CCCOC(=O)c3cc(OC)c(OC)c(OC)c3)CC2)cc(OC)c1OC [dilazep]
RT (hENT1 [3]): 44 min

O=C1NC2(CCN(CCNC(=O)c3c(Cl)cccc3Cl)CC2)Oc2cc(NC3CCOCC3)c(Cl)cc21 [Compound 15]
RT (residence time) (hENT1 [1]): 10 ± 0.7 min | koff (hENT1 [1]): 0.00167 ± 0.00012 s⁻¹ | kon (hENT1 [1]): 550000 ± 130000 M⁻¹ s⁻¹

CC(C)Oc1cc2c(cc1Cl)C(=O)NC1(CCN(CCNC(=O)c3c(Cl)cccc3Cl)CC1)O2 [Compound 21]
RT (residence time) (hENT1 [1]): 18 ± 3.6 min | koff (hENT1 [1]): 0.000933 ± 0.000183 s⁻¹ | kon (hENT1 [1]): 2.17e+06 ± 850000 M⁻¹ s⁻¹

CC(C)(C)OC(=O)N1CCN(c2cc3c(cc2Cl)C(=O)NC2(CCN(CCNC(=O)c4c(Cl)cccc4Cl)CC2)O3)CC1 [Compound 14]
RT (residence time) (hENT1 [1]): 38 ± 14 min | koff (hENT1 [1]): 0.00045 ± 0.000167 s⁻¹ | kon (hENT1 [1]): 333000 ± 17000 M⁻¹ s⁻¹

CC(=O)N1CCC(Nc2cc3c(cc2Cl)C(=O)NC2(CCN(CCNC(=O)c4c(Cl)cccc4Cl)CC2)O3)CC1 [Compound 18]
inhibitor washed away (recovery of [3H]NBTI binding) (hENT1 [4]): approximately 60% | RT (residence time) (hENT1 [1]): 26 ± 6.5 min | koff (hENT1 [1]): 0.000633 ± 0.00015 s⁻¹ | kon (hENT1 [1]): 433000 ± 50000 M⁻¹ s⁻¹

O=C1NC2(CCN(CCNC(=O)c3c(Cl)cccc3Cl)CC2)Oc2cc(OC3CCNCC3)c(Cl)cc21 [Compound 23]
inhibitor washed away (recovery of [3H]NBTI binding) (hENT1 [4]): completely washed away | koff (hENT1 [1]): 0.0034 ± 0.00085 s⁻¹ | kon (hENT1 [1]): 2.03e+06 ± 667000 M⁻¹ s⁻¹

CC(=O)N1CCC(Oc2cc3c(cc2Cl)CCC2(CCN(CCNC(=O)c4c(Cl)cccc4Cl)CC2)O3)CC1 [Compound 29]
RT (residence time) (hENT1 [1]): 52 ± 20 min | koff (hENT1 [1]): 0.000317 ± 0.00012 s⁻¹ | kon (hENT1 [1]): 1.58e+06 ± 333000 M⁻¹ s⁻¹

O=C1NC2(CCN(CCNC(=O)c3c(Cl)cccc3Cl)CC2)Oc2cc(O)c(Cl)cc21 [Compound 20]
Ki (hENT1 [5]): 1040 nM

Nc1cc2c(cc1Cl)C(=O)NC1(CCN(CCNC(=O)c3c(Cl)cccc3Cl)CC1)O2 [Compound 1]
Ki (hENT1 [5]): 145 nM

CC(=O)Nc1cc2c(cc1Cl)C(=O)NC1(CCN(CCNC(=O)c3c(Cl)cccc3Cl)CC1)O2 [Compound 4]
RT (residence time) (hENT1 [1]): 2.6 ± 0.7 min | koff (hENT1 [1]): 0.00643 ± 0.00178 s⁻¹ | kon (hENT1 [1]): 200000 ± 100000 M⁻¹ s⁻¹

CC(=O)N1CCC(Oc2cc3c(cc2Cl)C(=O)NC2(CCN(CCNC(=O)c4c(Cl)cccc4Cl)CC2)O3)CC1 [Compound 25]
inhibitor washed away (recovery of [3H]NBTI binding) (hENT1 [4]): 37% | inhibitor still bound to the target (hENT1 [4]; after four extensive washing steps, 10 × IC50 pre-incubation): more than 60% | RT (residence time) (hENT1 [1]): 72 ± 14 min | koff (hENT1 [1]): 0.000233 ± 5e-05 s⁻¹ | kon (hENT1 [1]): 533000 ± 67000 M⁻¹ s⁻¹

CC(=O)NCCCNc1cc2c(cc1Cl)C(=O)NC1(CCN(CCNC(=O)c3c(Cl)cccc3Cl)CC1)O2 [Compound 9]
RT (residence time) (hENT1 [1]): 10 ± 0.9 min | koff (hENT1 [1]): 0.0016 ± 0.00013 s⁻¹ | kon (hENT1 [1]): 417000 ± 83000 M⁻¹ s⁻¹

O=C1NC2(CCN(CCNC(=O)c3c(Cl)cccc3Cl)CC2)Oc2cc(N3CCOCC3)c(Cl)cc21 [Compound 11]
RT (residence time) (hENT1 [1]): 16 ± 3.3 min | koff (hENT1 [1]): 0.00107 ± 0.000233 s⁻¹ | kon (hENT1 [1]): 667000 ± 100000 M⁻¹ s⁻¹

CC(=O)N1CCC(Oc2cc3c(cc2Cl)C(=O)CC2(CCN(CCNC(=O)c4c(Cl)cccc4Cl)CC2)O3)CC1 [Compound 26]
RT (residence time) (hENT1 [1]): 66 ± 20 min | koff (hENT1 [1]): 0.00025 ± 8.3e-05 s⁻¹ | kon (hENT1 [1]): 717000 ± 130000 M⁻¹ s⁻¹

NC(=O)C1CN(CCCCC(c2ccc(F)cc2)c2ccc(F)cc2)CCN1CC(=O)Nc1c(Cl)cc(N)cc1Cl (centres unmarked) [Draflazine]
RT (hENT1 [3]): 88 min

COCNc1cc2c(cc1Cl)C(=O)NC1(CCN(CCNC(=O)c3c(Cl)cccc3Cl)CC1)O2 [Compound 5]
RT (residence time) (hENT1 [1]): 5.4 ± 0.7 min | koff (hENT1 [1]): 0.00308 ± 0.000383 s⁻¹ | kon (hENT1 [1]): 600000 ± 100000 M⁻¹ s⁻¹

CN(C)c1cc2c(cc1Cl)C(=O)NC1(CCN(CCNC(=O)c3c(Cl)cccc3Cl)CC1)O2 [Compound 3]
increase in affinity compared to 1 (hENT1 [2]): approximately 30 fold | RT (residence time) (hENT1 [1]): 6.6 ± 0.9 min | koff (hENT1 [1]): 0.00252 ± 0.000333 s⁻¹ | kon (hENT1 [1]): 2.63e+06 ± 800000 M⁻¹ s⁻¹

CN1CCC(Oc2cc3c(cc2Cl)C(=O)NC2(CCN(CCNC(=O)c4c(Cl)cccc4Cl)CC2)O3)CC1 [Compound 24]
koff (hENT1 [1]): 0.0069 ± 0.00142 s⁻¹ | kon (hENT1 [1]): 2.12e+06 ± 333000 M⁻¹ s⁻¹

O=C1NC2(CCN(CCNC(=O)c3c(Cl)cccc3Cl)CC2)Oc2cc(OC3CCCC3)c(Cl)cc21 [Compound 22]
RT (residence time) (hENT1 [1]): 35 ± 7.6 min | koff (hENT1 [1]): 0.000483 ± 0.0001 s⁻¹ | kon (hENT1 [1]): 483000 ± 120000 M⁻¹ s⁻¹

O=C1NC2(CCN(CCNC(=O)c3c(Cl)cccc3Cl)CC2)Oc2cc(NC3CCNCC3)c(Cl)cc21 [Compound 16]
RT (residence time) (hENT1 [1]): 2.2 ± 0.4 min | koff (hENT1 [1]): 0.00773 ± 0.00153 s⁻¹ | kon (hENT1 [1]): 267000 ± 33000 M⁻¹ s⁻¹
